Assay results from patent publication US9521850B2 (University of Florida Research Foundation, Incorporated, priority 2012, dated 2016).
In brackets after ≈: the same amount, converted by molar mass.

How the values were obtained:
Bradyrhizobium japonicum = assay: microbe, parasite or virus in culture; format: cell-based
Liberibacter crescens = assay: microbe, parasite or virus in culture; format: cell-based
CLAS populations = assay: Effect on CLAS populations, mean Ct by quantitative PCR (Example 2)
Rhizobium etli = assay: microbe, parasite or virus in culture; format: cell-based
Sinorhizobium meliloti = assay: microbe, parasite or virus in culture; format: cell-based
Mesorhizobium loti = assay: microbe, parasite or virus in culture; format: cell-based
[1] = test system: Agrobacterium tumefaciens; assay: microbe, parasite or virus in culture; format: cell-based
Xanthomonas citri = assay: microbe, parasite or virus in culture; format: cell-based, Xanthomonas citri subsp. citri

Work on CN(C)[C@@H]1C(O)=C(C(N)=O)C(=O)[C@@]2(O)C(O)=C3C(=O)c4c(O)cccc4[C@@](C)(O)[C@H]3[C@H](O)[C@@H]12 [Oxytetracycline, reference compound] yielded an MBC (Bradyrhizobium japonicum; 24 hrs) of 4 µg/mL (≈ 8.69 µM), an MIC (Bradyrhizobium japonicum; 24 hrs) of 4 µg/mL (≈ 8.69 µM) and an MBC (Bradyrhizobium japonicum; 120 hrs) of 4 µg/mL (≈ 8.69 µM). The MIC (Bradyrhizobium japonicum; 120 hrs) was 4 µg/mL (≈ 8.69 µM), the MBC (Liberibacter crescens; 120 h) was 8 µg/mL (≈ 17.4 µM) and the MIC (Liberibacter crescens; 120 h) was 8 µg/mL (≈ 17.4 µM). For the same molecule, the “mean Ct value (CLAS populations)” value (CLAS populations; 2 days after treatment) was 26.10 b, the “mean Ct value (CLAS populations)” value (CLAS populations; 4 days after treatment) was 25.61 b and the “mean Ct value (CLAS populations)” value (CLAS populations; Before treatment) was 25.36 a. It also gave an MBC (Rhizobium etli; 24 hrs) of 4 µg/mL (≈ 8.69 µM), an MIC (Rhizobium etli; 24 hrs) of 4 µg/mL (≈ 8.69 µM) and an MBC (Rhizobium etli; 120 hrs) of 4 µg/mL (≈ 8.69 µM). For the same molecule, the MIC (Rhizobium etli; 120 hrs) was 4 µg/mL (≈ 8.69 µM).
O=C1CC(c2ccccc2)CC2=C1C(c1ccc(O)cc1)Nc1ccc(C(=O)c3ccccc3)cc1N2 (stereo not shown) [SA6, 7-Benzoyl-11-(4-hydroxy-phenyl)-3-phenyl-2,3,4,5,10,11-hexahydro-1H-dibenzo[b,e] [1,4]diazepin-1-one] showed an MBC (Sinorhizobium meliloti) of 32 µg/mL (≈ 65.8 µM), an MIC (Sinorhizobium meliloti) of 32 µg/mL (≈ 65.8 µM) and an MBC (Mesorhizobium loti) of 32 µg/mL (≈ 65.8 µM). For the same molecule, the MIC (Mesorhizobium loti) was 16 µg/mL (≈ 32.9 µM), the MBC [1] was 64 µg/mL (≈ 132 µM) and the MIC [1] was 16 µg/mL (≈ 32.9 µM). For the same molecule, the MBC (Bradyrhizobium japonicum; 24 hrs) was 32 µg/mL (≈ 65.8 µM), the MIC (Bradyrhizobium japonicum; 24 hrs) was 16 µg/mL (≈ 32.9 µM) and the MBC (Bradyrhizobium japonicum; 120 hrs) was 32 µg/mL (≈ 65.8 µM). For the same molecule, the MIC (Bradyrhizobium japonicum; 120 hrs) was 32 µg/mL (≈ 65.8 µM), the MBC (Liberibacter crescens; 24 h) was 16 µg/mL (≈ 32.9 µM) and the MIC (Liberibacter crescens; 24 h) was 16 µg/mL (≈ 32.9 µM). For the same molecule, the MBC (Liberibacter crescens; 120 h) was 64 µg/mL (≈ 132 µM), the MIC (Liberibacter crescens; 120 h) was 32 µg/mL (≈ 65.8 µM) and the MBC (Rhizobium etli; 24 hrs) was 32 µg/mL (≈ 65.8 µM). It also gave an MIC (Rhizobium etli; 24 hrs) of 32 µg/mL (≈ 65.8 µM), an MBC (Rhizobium etli; 120 hrs) of 64 µg/mL (≈ 132 µM) and an MIC (Rhizobium etli; 120 hrs) of 64 µg/mL (≈ 132 µM). The MBC (Xanthomonas citri) was 128 µg/mL (≈ 263 µM) and the MIC (Xanthomonas citri) was 64 µg/mL (≈ 132 µM).
For CCOc1ccc(C2Nc3ccc(C(=O)c4ccccc4)cc3NC3=C2C(=O)CCC3)cc1 (stereo not shown) [SA7, 7-Benzoyl-11-(4-ethoxy-phenyl)-2,3,4,5,10,11-hexahydro-1H-dibenzo[b,e] [1,4]diazepin-1-one], the MBC (Sinorhizobium meliloti) was 32 µg/mL (≈ 73 µM), the MIC (Sinorhizobium meliloti) was 16 µg/mL (≈ 36.5 µM) and the MBC (Mesorhizobium loti) was 32 µg/mL (≈ 73 µM). For the same molecule, the MIC (Mesorhizobium loti) was 16 µg/mL (≈ 36.5 µM), the MBC [1] was 64 µg/mL (≈ 146 µM) and the MIC [1] was 16 µg/mL (≈ 36.5 µM). For the same molecule, the MBC (Bradyrhizobium japonicum; 24 hrs) was 32 µg/mL (≈ 73 µM), the MIC (Bradyrhizobium japonicum; 24 hrs) was 32 µg/mL (≈ 73 µM) and the MBC (Bradyrhizobium japonicum; 120 hrs) was 32 µg/mL (≈ 73 µM). The MIC (Bradyrhizobium japonicum; 120 hrs) was 32 µg/mL (≈ 73 µM), the MBC (Liberibacter crescens; 24 h) was 16 µg/mL (≈ 36.5 µM) and the MIC (Liberibacter crescens; 24 h) was 16 µg/mL (≈ 36.5 µM). The MBC (Liberibacter crescens; 120 h) was 32 µg/mL (≈ 73 µM), the MIC (Liberibacter crescens; 120 h) was 32 µg/mL (≈ 73 µM) and the MBC (Rhizobium etli; 24 hrs) was 16 µg/mL (≈ 36.5 µM). The MIC (Rhizobium etli; 24 hrs) was 16 µg/mL (≈ 36.5 µM), the MBC (Rhizobium etli; 120 hrs) was 32 µg/mL (≈ 73 µM) and the MIC (Rhizobium etli; 120 hrs) was 32 µg/mL (≈ 73 µM). The MBC (Xanthomonas citri) was 64 µg/mL (≈ 146 µM) and the MIC (Xanthomonas citri) was 32 µg/mL (≈ 73 µM).
Cc1cc([C@H]2Nc3ccc(C(=O)c4ccccc4)cc3NC3=C2C(=O)CC(C)(C)C3)cc(C)c1O [SA9, 11-(4-hydroxy-3,5-dimethyl-phenyl)-3,3-dimethyl-7-(phenyl-carbonyl)-2,3,4,5,10,11-hexahydro-1H-dibenzo[b,e] [1,4]diazepin-1-one] showed an MBC (Sinorhizobium meliloti) of 32 µg/mL (≈ 68.6 µM), an MIC (Sinorhizobium meliloti) of 16 µg/mL (≈ 34.3 µM) and an MBC (Mesorhizobium loti) of 32 µg/mL (≈ 68.6 µM). The MIC (Mesorhizobium loti) was 16 µg/mL (≈ 34.3 µM), the MBC [1] was 64 µg/mL (≈ 137 µM) and the MIC [1] was 32 µg/mL (≈ 68.6 µM). The MBC (Bradyrhizobium japonicum; 24 hrs) was 32 µg/mL (≈ 68.6 µM), the MIC (Bradyrhizobium japonicum; 24 hrs) was 16 µg/mL (≈ 34.3 µM) and the MBC (Bradyrhizobium japonicum; 120 hrs) was 64 µg/mL (≈ 137 µM). The MIC (Bradyrhizobium japonicum; 120 hrs) was 32 µg/mL (≈ 68.6 µM), the MBC (Liberibacter crescens; 24 h) was 16 µg/mL (≈ 34.3 µM) and the MIC (Liberibacter crescens; 24 h) was 16 µg/mL (≈ 34.3 µM). It also gave an MBC (Liberibacter crescens; 120 h) of 64 µg/mL (≈ 137 µM), an MIC (Liberibacter crescens; 120 h) of 32 µg/mL (≈ 68.6 µM) and an MBC (Rhizobium etli; 24 hrs) of 16 µg/mL (≈ 34.3 µM). For the same molecule, the MIC (Rhizobium etli; 24 hrs) was 8 µg/mL (≈ 17.1 µM), the MBC (Rhizobium etli; 120 hrs) was 32 µg/mL (≈ 68.6 µM) and the MIC (Rhizobium etli; 120 hrs) was 16 µg/mL (≈ 34.3 µM). It also gave an MBC (Xanthomonas citri) of 64 µg/mL (≈ 137 µM) and an MIC (Xanthomonas citri) of 32 µg/mL (≈ 68.6 µM).
In the case of O=C1CC(c2ccccc2)CC2=C1C(c1cccs1)Nc1ccc(C(=O)c3ccccc3)cc1N2 (stereo not shown) [SA8, 7-Benzoyl-3-phenyl-11-(2-thienyl)-2,3,4,5,10,11-hexahydro-1H-dibenzo[b,e] [1,4]diazepin-1-one], the MBC (Sinorhizobium meliloti) is reported as 32 µg/mL (≈ 67.1 µM), the MIC (Sinorhizobium meliloti) is reported as 16 µg/mL (≈ 33.6 µM) and the MBC (Mesorhizobium loti) is reported as 32 µg/mL (≈ 67.1 µM). The MIC (Mesorhizobium loti) was 16 µg/mL (≈ 33.6 µM), the MBC [1] was 128 µg/mL (≈ 269 µM) and the MIC [1] was 32 µg/mL (≈ 67.1 µM). It also gave an MBC (Bradyrhizobium japonicum; 24 hrs) of 16 µg/mL (≈ 33.6 µM), an MIC (Bradyrhizobium japonicum; 24 hrs) of 8 µg/mL (≈ 16.8 µM) and an MBC (Bradyrhizobium japonicum; 120 hrs) of 32 µg/mL (≈ 67.1 µM). It also gave an MIC (Bradyrhizobium japonicum; 120 hrs) of 32 µg/mL (≈ 67.1 µM), an MBC (Liberibacter crescens; 24 h) of 16 µg/mL (≈ 33.6 µM) and an MIC (Liberibacter crescens; 24 h) of 16 µg/mL (≈ 33.6 µM). For the same molecule, the MBC (Liberibacter crescens; 120 h) was 32 µg/mL (≈ 67.1 µM), the MIC (Liberibacter crescens; 120 h) was 32 µg/mL (≈ 67.1 µM) and the MBC (Rhizobium etli; 24 hrs) was 16 µg/mL (≈ 33.6 µM). It also gave an MIC (Rhizobium etli; 24 hrs) of 8 µg/mL (≈ 16.8 µM), an MBC (Rhizobium etli; 120 hrs) of 32 µg/mL (≈ 67.1 µM) and an MIC (Rhizobium etli; 120 hrs) of 16 µg/mL (≈ 33.6 µM). The MBC (Xanthomonas citri) was 64 µg/mL (≈ 134 µM) and the MIC (Xanthomonas citri) was 32 µg/mL (≈ 67.1 µM).
With COc1ccc(NC(=O)C2(N(C(=O)c3ccc(-n4cnnn4)cc3)c3ccc(OC)cc3)CCCCC2)cc1 [SSC8, N-(4-methoxy-phenyl)-N-{1-[(4-methoxy-phenyl)carbamoyl]cyclohexyl}-4-(1H-tetrazol-1-yl)benzamide] the MBC (Sinorhizobium meliloti) was 32 µg/mL (≈ 60.8 µM), the MIC (Sinorhizobium meliloti) was 16 µg/mL (≈ 30.4 µM) and the MBC (Mesorhizobium loti) was 32 µg/mL (≈ 60.8 µM). For the same molecule, the MIC (Mesorhizobium loti) was 16 µg/mL (≈ 30.4 µM), the MBC [1] was 64 µg/mL (≈ 122 µM) and the MIC [1] was 32 µg/mL (≈ 60.8 µM). It also gave an MBC (Bradyrhizobium japonicum; 24 hrs) of 16 µg/mL (≈ 30.4 µM), an MIC (Bradyrhizobium japonicum; 24 hrs) of 8 µg/mL (≈ 15.2 µM) and an MBC (Bradyrhizobium japonicum; 120 hrs) of 32 µg/mL (≈ 60.8 µM). It also gave an MIC (Bradyrhizobium japonicum; 120 hrs) of 16 µg/mL (≈ 30.4 µM), an MBC (Liberibacter crescens; 24 h) of 16 µg/mL (≈ 30.4 µM) and an MIC (Liberibacter crescens; 24 h) of 16 µg/mL (≈ 30.4 µM). It also gave an MBC (Liberibacter crescens; 120 h) of 32 µg/mL (≈ 60.8 µM), an MIC (Liberibacter crescens; 120 h) of 32 µg/mL (≈ 60.8 µM) and an MBC (Rhizobium etli; 24 hrs) of 32 µg/mL (≈ 60.8 µM). It also gave an MIC (Rhizobium etli; 24 hrs) of 16 µg/mL (≈ 30.4 µM), an MBC (Rhizobium etli; 120 hrs) of 64 µg/mL (≈ 122 µM) and an MIC (Rhizobium etli; 120 hrs) of 32 µg/mL (≈ 60.8 µM). For the same molecule, the MBC (Xanthomonas citri) was 64 µg/mL (≈ 122 µM) and the MIC (Xanthomonas citri) was 32 µg/mL (≈ 60.8 µM).
Molecule O=C1CCCC2=C1[C@H](c1ccccc1)Nc1ccc(C(=O)c3ccccc3)cc1N2 [SA4, (11S)-7-Benzoyl-11-phenyl-2,3,4,5,10,11-hexahydro-1H-dibenzo[b,e] [1,4]diazepin-1-one] has an MBC (Sinorhizobium meliloti) of 64 µg/mL (≈ 162 µM), an MIC (Sinorhizobium meliloti) of 32 µg/mL (≈ 81.1 µM) and an MBC (Mesorhizobium loti) of 32 µg/mL (≈ 81.1 µM). For the same molecule, the MIC (Mesorhizobium loti) was 16 µg/mL (≈ 40.6 µM), the MBC [1] was 64 µg/mL (≈ 162 µM) and the MIC [1] was 16 µg/mL (≈ 40.6 µM). For the same molecule, the MBC (Bradyrhizobium japonicum; 24 hrs) was 16 µg/mL (≈ 40.6 µM), the MIC (Bradyrhizobium japonicum; 24 hrs) was 8 µg/mL (≈ 20.3 µM) and the MBC (Bradyrhizobium japonicum; 120 hrs) was 16 µg/mL (≈ 40.6 µM). It also gave an MIC (Bradyrhizobium japonicum; 120 hrs) of 16 µg/mL (≈ 40.6 µM), an MBC (Liberibacter crescens; 24 h) of 32 µg/mL (≈ 81.1 µM) and an MIC (Liberibacter crescens; 24 h) of 16 µg/mL (≈ 40.6 µM). The MBC (Liberibacter crescens; 120 h) was 64 µg/mL (≈ 162 µM), the MIC (Liberibacter crescens; 120 h) was 32 µg/mL (≈ 81.1 µM) and the MBC (Rhizobium etli; 24 hrs) was 16 µg/mL (≈ 40.6 µM). For the same molecule, the MIC (Rhizobium etli; 24 hrs) was 8 µg/mL (≈ 20.3 µM), the MBC (Rhizobium etli; 120 hrs) was 32 µg/mL (≈ 81.1 µM) and the MIC (Rhizobium etli; 120 hrs) was 16 µg/mL (≈ 40.6 µM). For the same molecule, the MBC (Xanthomonas citri) was 64 µg/mL (≈ 162 µM) and the MIC (Xanthomonas citri) was 32 µg/mL (≈ 81.1 µM).
